Results: publication PMC10634346 (Cancer Research Communications, 2023)

What was measured:
[1] = Clinical pharmacokinetics, plasma LC/MS-MS (NCT02635672); format: in vivo, human; conditions: subject 3, dose lowered from 30 to 22.5 mg, not included in average
MYC mRNA in whole blood = MYC mRNA in whole blood of patients (RNA-seq, PK/PD modeling); format: in vivo, human; conditions: for maximum extent of inhibition for MYC mRNA: C1D1, 30 mg; for MYC mRNA downregulation: C1D15, third weekly 30 mg dose; for mean fold change mRNA levels of MYC: after C1D1 dose; for mean fold change mRNA levels of MYC / MYC mRNA fold change: RNA-seq; for MYC mRNA fold change: after C1D15 dose
Procedure: Total RNA was extracted from blood of patients and cell lines using RNeasy Plus Mini Kit (QIAGEN, #74136) and cDNA prepared with the Maxima First Strand cDNA Synthesis Kit for RT-PCR (Thermo Fisher Scientific, K1642) according to manufacturer's instructions. The integrity of purified total RNA was evaluated using an Agilent 2100 Bioanalyzer system and RNA 6000 Nano Kit (Agilent, #5067-1511). Differential gene expression analysis was performed (Fios Genomics) from RNA-seq data (Discovery Life Sciences). MYC and MCL1 mRNA levels were measured by qPCR in vitro and in vivo, using a Taqman qPCR system (Thermo Fisher Scientific), TaqMan Fast Universal PCR Master Mix (2X) no AmpErase (#4352042) and TaqMan probes for MYC (Hs00153408_m1) and MCL1 (Hs03043899_m1). RNA-seq data were analyzed using DESeq2 ([35]).
Fifteen patients with refractory or relapsed DH-DLBCL or other MYC+ NHL were treated with enitociclib (30 mg, 21-day cycle, once weekly x3) as a 30-minute intravenous infusion on study days 1, 8, and 15 (NCT02635672). Longitudinal gene expression levels were analyzed by RNA-seq, and enitociclib plasma concentrations were measured using LC/MS-MS. The clinical study protocol was approved by the Institutional Review Board of participating institutions and complied with the Declaration of Helsinki, current Good Clinical Practice guidelines, and local laws and regulations. Written informed consent was provided by all participants prior to the initiation of any study-specific procedure.
All pharmacokinetic parameters were calculated by noncompartmental methods as described previously ([36]) using WinNonlin v5.3 (Certara LP). Pharmacokinetic/pharmacodynamic modeling was performed using SAAM II v2.3.2 (The Epsilon Group). Pooled pharmacokinetic data from all patients [n = 15 for single dose, cycle 1 day 1 (C1D1) and n = 11 for multiple doses, cycle 1 day 15 (C1D15)] were characterized using a one-compartment model with intravenous dosing. Subsequently, the pharmacokinetic/pharmacodynamic relationship of enitociclib plasma concentrations to MCL1 and MYC mRNA change was characterized using an indirect response model ([37]) on pooled biomarker data where enitociclib concentrations inhibit the formation of MCL1 or MYC mRNA as described by the following equation: […]
PD is defined as MCL1 or MYC mRNA expression level as a percentage from baseline, t (h) is the time, kin (1/h) is the formation rate of MCL1 or MYC, IC50 (µg/L) is the enitociclib concentration where there is 50% inhibition of PD, kout (h^−1) is the rate constant describing the loss of PD, and n is the hill coefficient. At homeostasis, kin = kout (PD); therefore, kout was replaced by kin/(PD)initial where (PD)initial is equal to 100%. Estimates of pharmacokinetic and pharmacodynamic parameters from pharmacokinetic/pharmacodynamic modeling of pooled data are presented as the estimate followed by CV in parentheses.
RNA-seq data generated from the analysis of two cell lines treated with the three CDK9 inhibitors was analyzed to investigate the differences in gene expression levels between various posttreatment timepoints and the pretreatment samples. Quality control assessment and exploratory data analysis by principal component analysis (PCA) were done on raw counts and on normalized count data. Normalization of RNA-seq count data was done using trimmed mean of M-values normalization and transformed with voom, resulting in log2 counts per million with associated precision weights. […] Significance values (Padj) were adjusted for multiple testing, by controlling the FDR using the Benjamini–Hochberg procedure. […] RNA-seq data generated from blood samples taken from patients before and after their first dose (C1D1) or after multiple doses, before and after their third dose (C1D15) were analyzed and normalized using the same pipeline as cell lines for comparisons.

[2] = test system: p-Ser5 RNA polymerase II in SU-DHL-10 tumors; experiment: Pharmacodynamics in SU-DHL-10 xenograft tumors, p-Ser5; format: in vivo, C.B-17 SCID mice; conditions: single dose, all doses (5, 10, 15 mg/kg)
Procedure: The levels of p-Ser2, p-Ser5 and total RNA polymerase II, Myc, Mcl-1, cleaved PARP (cPARP), and cleaved Caspase 3 were assessed by Western blotting and quantified near-infrared detection and background corrected quantification of fluorescence intensity on an Odyssey Imaging System with IRDye secondary antibodies (LI-COR Biosciences). For quantification, the protein levels were normalized to GAPDH or HSP90, expressed as a ratio to DMSO or vehicle control at matched timepoints. The normalized relative protein levels of p-Ser2 were used for a treatment effect comparison by performing an ANOVA using PROC MIXED in SAS. The ANOVA model included treatment, timepoints and their interactions as fixed effects. The least square means (LSM), differences between the LSMs and associated P values were generated. The following primary antibodies were used: Rpb1 NTD (D8L4Y) rabbit antibody [Cell Signaling Technology (CST), #14958], anti-RNA polymerase II subunit B1 (phospho CTD Ser-2, clone 3E10) rat antibody (Merck, 04-1571-I), recombinant anti-c-MYC rabbit antibody (Y69; Abcam, #ab32072), MCL1 (D5V5L) rabbit antibody (CST, #39224), cleaved-PARP (Asp214) (E2T4K) mouse antibody (CST, #32563), HSP90 (C45G5) rabbit antibody (CST, #4877), and GAPDH mouse antibody (Zytomed Systems, #ZYT-RGM2-6C5). […]

What does the source list for `COc1cc(F)ccc1-c1cc(Nc2cc(CS(C)(=N)=O)ccn2)ncc1F` (stereo not drawn) [enitociclib]?
Tmax ([1]; human, plasma, intravenous, 22.5 mg, read-out: Multiple dose tmax): 29 min; Multiple dose AUC0-t [1]: 1,670^b µg^ah/L; maximum extent of inhibition for MYC mRNA (MYC mRNA in whole blood; other MYC+ NHL (n = 5), range 69.9%–90.5%): 82.3%; maximum extent of inhibition for MYC mRNA (MYC mRNA in whole blood; patients with DH-DLBCL (n = 10), range 73.6%–94.8%): 89.6%; MYC mRNA downregulation (MYC mRNA in whole blood; DH-DLBCL (n = 9), range 96.85%–50%): 86.71%; MYC mRNA downregulation (MYC mRNA in whole blood; other MYC+ NHL (n = 3), range 53.7%–86.9%): 71.08%; mean fold change mRNA levels of MYC (MYC mRNA in whole blood; DH-DLBCL): −3.45 (SD 0.68); MYC mRNA fold change (MYC mRNA in whole blood; DH-DLBCL): −3.38 (SD 1.07); IC50 (MYC mRNA in whole blood; Homo sapiens, PK/PD indirect response model, pooled patient blood data, read-out: model estimated unbound IC50 for MYC mRNA): 17.4 to 22 nM; mean fold change mRNA levels of MYC (MYC mRNA in whole blood; other MYC+ NHL): −2.61 (SD 0.54); MYC mRNA fold change (MYC mRNA in whole blood; other MYC+ NHL): −1.97 (SD 0.75); p-Ser5 reductions in tumors (in words) [2]: not robust
